Experiment [1] concerns the target T1, Androgen receptor (Rattus norvegicus, UniProt P15207).
T1 sequence (P15207 whole entry): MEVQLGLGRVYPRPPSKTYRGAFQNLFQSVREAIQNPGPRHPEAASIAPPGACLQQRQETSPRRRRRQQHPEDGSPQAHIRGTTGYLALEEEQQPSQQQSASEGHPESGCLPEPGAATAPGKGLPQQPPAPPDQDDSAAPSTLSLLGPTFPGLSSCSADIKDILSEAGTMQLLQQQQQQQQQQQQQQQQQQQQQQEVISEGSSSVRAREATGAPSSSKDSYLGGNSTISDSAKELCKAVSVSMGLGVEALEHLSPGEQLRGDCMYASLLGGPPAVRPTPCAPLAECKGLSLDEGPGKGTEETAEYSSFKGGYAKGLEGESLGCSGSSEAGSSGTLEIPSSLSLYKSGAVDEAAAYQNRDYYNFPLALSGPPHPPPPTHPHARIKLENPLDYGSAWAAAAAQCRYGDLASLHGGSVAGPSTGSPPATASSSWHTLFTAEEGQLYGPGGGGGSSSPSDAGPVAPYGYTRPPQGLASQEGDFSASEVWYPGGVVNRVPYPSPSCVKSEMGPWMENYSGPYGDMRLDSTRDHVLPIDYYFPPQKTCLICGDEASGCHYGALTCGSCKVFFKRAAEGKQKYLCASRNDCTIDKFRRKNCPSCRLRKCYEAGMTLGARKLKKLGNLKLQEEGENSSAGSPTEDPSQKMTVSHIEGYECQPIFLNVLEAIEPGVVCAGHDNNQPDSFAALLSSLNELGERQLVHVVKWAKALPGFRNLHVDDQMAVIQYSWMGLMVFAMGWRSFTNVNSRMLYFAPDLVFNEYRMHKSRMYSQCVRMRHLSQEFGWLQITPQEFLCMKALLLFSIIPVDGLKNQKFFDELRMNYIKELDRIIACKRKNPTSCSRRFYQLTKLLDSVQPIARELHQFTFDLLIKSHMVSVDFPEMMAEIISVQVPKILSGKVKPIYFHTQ
The experiment in a line: In vitro antagonist activity against rat prostatic androgen receptor (AR).

Experiment [2] has as its target T2, Steroid 5-alpha-reductase (Rattus norvegicus, UniProt P24008+P31214).
T2 sequence (P24008 whole entry): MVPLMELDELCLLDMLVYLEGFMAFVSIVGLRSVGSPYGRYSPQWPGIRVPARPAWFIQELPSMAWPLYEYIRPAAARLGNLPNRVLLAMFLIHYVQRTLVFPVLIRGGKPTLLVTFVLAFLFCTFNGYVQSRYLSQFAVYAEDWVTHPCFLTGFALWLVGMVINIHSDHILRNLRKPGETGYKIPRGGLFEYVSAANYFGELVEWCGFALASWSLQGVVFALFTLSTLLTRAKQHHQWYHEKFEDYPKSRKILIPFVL
T2 sequence (P31214 whole entry): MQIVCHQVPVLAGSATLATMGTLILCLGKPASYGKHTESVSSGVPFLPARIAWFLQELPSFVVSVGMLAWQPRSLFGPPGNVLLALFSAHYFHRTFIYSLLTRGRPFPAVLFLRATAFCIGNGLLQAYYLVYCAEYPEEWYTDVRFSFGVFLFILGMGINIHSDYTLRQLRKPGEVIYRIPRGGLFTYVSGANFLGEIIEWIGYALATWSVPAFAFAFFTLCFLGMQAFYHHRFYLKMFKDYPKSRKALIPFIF
The experiment in a line: In vitro inhibitory activity against rat prostatic steroid 5-alpha-reductase. The class given is protein assay.

Molecules are shown by their SMILES.

As a reminder, the IC50 is the point on the concentration scale where inhibition reaches its midpoint. Lower therefore signals greater potency. In the case of `CNC(=O)[C@H]1CC[C@H]2[C@@H]3CCC4N(C)C(=O)CC[C@]4(C)[C@H]3CC[C@]12C` (stereo partly drawn), the results for the IC50 in experiment [1] and in experiment [2] were 1100 nM and 38 nM, respectively.

As to `CNC(=O)[C@H]1CC[C@H]2[C@@H]3CC=C4N(C)C(=O)CC[C@]4(C)[C@H]3CC[C@]12C`, the values for the IC50 in experiment [1] and in experiment [2] were 400 nM and 140 nM, respectively.

Take `CN1C(=O)CC[C@@]2(C)C1CC[C@H]1[C@@H]3CC[C@H](C(=O)NC(C)(C)C)[C@@]3(C)CC[C@@H]12` (stereo partly drawn): the results for the 50% inhibitory concentration (IC50) in experiment [1] and in experiment [2] were 680 nM and 0.56 nM, respectively.

For `CCN(CC)C(=O)[C@H]1CCC[C@H]2[C@@H]3CC[C@H]4N(C)C(=O)OC[C@]4(C)[C@H]3CC[C@]12C`, the IC50 amounted to 3700 nM in experiment [1] and 500 nM in experiment [2].

With `CC(C)N(C(=O)[C@H]1CC[C@H]2[C@@H]3CC=C4NC(=O)CC[C@]4(C)[C@H]3CC[C@]12C)C(C)C`, the IC50 in experiment [1] is 14000 nM; in experiment [2], 86 nM.

Consider `CCC(C)C(=O)[C@H]1CC[C@H]2[C@@H]3CCC4NC(=O)CC[C@]4(C)[C@H]3CC[C@]12C` (stereo partly drawn), for which the IC50 in experiment [1] was above 100000 nM; in experiment [2], 1.2 nM.

As for `CN1C(=O)CC[C@@]2(C)C1CC[C@H]1[C@@H]3CC[C@H](C(N)=O)[C@@]3(C)CC[C@@H]12` (stereo partly drawn), the IC50 is 440 nM in experiment [1] and 17 nM in experiment [2].

With `CN1C(=O)C=C[C@@]2(C)C1CC[C@H]1[C@@H]3CC[C@H](C(=O)NC(C)(C)C)[C@@]3(C)CC[C@@H]12` (stereo partly drawn), the half-maximal inhibitory concentration (IC50) in experiment [1] is 150 nM; in experiment [2], 13 nM.

`CCN(CC)C(=O)[C@H]1CC[C@H]2[C@@H]3CC=C4N(N)C(=O)CC[C@]4(C)[C@H]3CC[C@]12C`: the results for the 50% inhibitory concentration (IC50) in experiment [1] and in experiment [2] were 5400 nM and 36 nM, respectively.

For the compound `CN1C(=O)CC[C@@]2(C)C1CC[C@H]1[C@@H]3CC[C@H](C(=O)NCCO)[C@@]3(C)CC[C@@H]12` (stereo partly drawn), the IC50 in experiment [1] was 1700 nM; in experiment [2], 93 nM.

As to `C[C@]12CC[C@H]3[C@@H](CCC4NC(=O)CC[C@@]43C)[C@@H]1CC[C@@H]2C(=O)[O-].[K+]` (stereo partly drawn), the values for the IC50 in experiment [1] and in experiment [2] were above 100000 nM and 25 nM, respectively.

As to `C[C@]12C=CC(=O)NC1CC[C@@H]1[C@@H]2CC[C@@]2(C)[C@H]1CC[C@@]21CCCO1` (stereo partly drawn), the IC50 in experiment [1] was 1500 nM; in experiment [2] it was 430 nM.

Consider `CCN(CC)C(=O)C(C)[C@H]1CC[C@H]2[C@@H]3CCC4N(C)C(=O)CC[C@]4(C)[C@H]3CC[C@]12C` (stereo partly drawn), for which the IC50 in experiment [1] is 48000 nM; in experiment [2], 13 nM.

On to `CCN(CC)C(=O)[C@H]1CC[C@H]2[C@@H]3CC[C@H]4NC(=O)C=C[C@]4(C)[C@H]3CC[C@]12C`, for which the IC50 in experiment [1] is above 100000 nM; in experiment [2] it was 140 nM.

As for `CC(C)N(C(=O)[C@H]1CC[C@H]2[C@@H]3CC[C@H]4N(C)C(=O)CC[C@]4(C)[C@H]3CC[C@]12C)C(C)C`, the figures for the IC50 in experiment [1] and in experiment [2] were 14000 nM and 3.5 nM, respectively.

Regarding `CC(=O)N[C@H]1CC[C@H]2[C@@H]3CCC4N(C)C(=O)CC[C@]4(C)[C@H]3CC[C@]12C` (stereo partly drawn), the IC50 in experiment [1] was determined as 1400 nM; in experiment [2], 270 nM.

In the case of `CN1C(=O)CC[C@@]2(C)C1CC[C@H]1[C@@H]3CC[C@H](C(=O)[O-])[C@@]3(C)CC[C@@H]12.[Na+]` (stereo partly drawn), the values for the IC50 in experiment [1] and in experiment [2] were 9100 nM and 37 nM, respectively.

For the compound `CCN(CC)C(=O)[C@H]1CC[C@H]2[C@@H]3CC[C@H]4N(C)C(=O)C=C[C@]4(C)[C@H]3CC[C@]12C`, the half-maximal inhibitory concentration (IC50) in experiment [1] is 450 nM; in experiment [2], 290 nM.

For `CCCCCCCCNC(=O)[C@H]1CC[C@H]2[C@@H]3CCC4N(C)C(=O)CC[C@]4(C)[C@H]3CC[C@]12C` (stereo partly drawn), the concentration for half-maximal inhibition (IC50) is 130 nM in experiment [1] and 0.21 nM in experiment [2].

In the case of `C[C@H]1CC2N(C)C(=O)CC[C@]2(C)[C@H]2CC[C@@]3(C)[C@@H](CC[C@@]34CCCO4)[C@H]12` (stereo partly drawn), the 50% inhibitory concentration (IC50) in experiment [1] turned out to be 500 nM; in experiment [2], 4.6 nM.

On to `CCN(CC)C(=O)[C@H]1CC[C@H]2[C@@H]3CC[C@H]4N(C)C(=O)C(=O)C[C@]4(C)[C@H]3CC[C@]12C`, for which the IC50 in experiment [1] was determined as 50000 nM; in experiment [2] it was 340 nM.

Regarding `CC(C)N(C(=O)[C@H]1CC[C@H]2[C@@H]3CCC4N(C)C(=O)C=C[C@]4(C)[C@H]3CC[C@]12C)C(C)C` (stereo partly drawn), the results for the IC50 in experiment [1] and in experiment [2] were 10000 nM and 430 nM, respectively.

Turning to `CC(C#N)[C@H]1CC[C@H]2[C@@H]3CCC4N(C)C(=O)CC[C@]4(C)[C@H]3CC[C@]12C` (stereo partly drawn), the concentration for half-maximal inhibition (IC50) in experiment [1] came out at 290 nM; in experiment [2], 7.6 nM.

With `CC(O)[C@H]1[C@H](C)C[C@H]2[C@@H]3CCC4N(C)C(=O)CC[C@]4(C)[C@H]3CC[C@@]21C` (stereo partly drawn), the IC50 in experiment [1] was determined as 170 nM; in experiment [2] it was 2.8 nM.

Consider `CC(C(=O)[O-])[C@H]1CC[C@H]2[C@@H]3CC=C4N(C)C(=O)CC[C@]4(C)[C@H]3CC[C@]12C.[Na+]` (stereo partly drawn), for which the results for the IC50 in experiment [1] and in experiment [2] were 25000 nM and 13 nM, respectively.

Regarding `CCN(CC)C(=O)[C@H]1CC[C@H]2[C@@H]3CC[C@H]4N(C)C(=O)[C@@H]5C[C@@H]5[C@]4(C)[C@H]3CC[C@]12C`, the 50% inhibitory concentration (IC50) was 2700 nM in experiment [1] and 20 nM in experiment [2].

Turning to `CCC(C)C(=O)[C@H]1CC[C@H]2[C@@H]3CCC4N(C)C(=O)C=C[C@]4(C)[C@H]3CC[C@]12C` (stereo partly drawn), the IC50 was 64 nM in experiment [1] and 120 nM in experiment [2].

With `CCN(CC)C(=O)[C@H]1CC[C@H]2[C@@H]3CC[C@H]4N(C)C(=O)C[C@H](C)[C@]4(C)[C@H]3CC[C@]12C`, the figures for the IC50 in experiment [1] and in experiment [2] were 16000 nM and 86 nM, respectively.

With `CN1C(=O)CC[C@@]2(C)C1CC[C@H]1[C@@H]3CC[C@H](C(=O)N4CCOCC4)[C@@]3(C)CC[C@@H]12` (stereo partly drawn), the results for the IC50 in experiment [1] and in experiment [2] were 10000 nM and 27 nM, respectively.

With `CCCCCCCCCCCCCCCCCCNC(=O)[C@H]1CC[C@H]2[C@@H]3CCC4N(C)C(=O)CC[C@]4(C)[C@H]3CC[C@]12C` (stereo partly drawn), the IC50 in experiment [1] is 17000 nM; in experiment [2], 20 nM.

For the compound `CCN(CC)C(=O)[C@H]1CC[C@H]2[C@@H]3CC=C4N(O)C(=O)CC[C@]4(C)[C@H]3CC[C@]12C`, the IC50 in experiment [1] is 190 nM; in experiment [2], 220 nM.

In the case of `CCOC(=O)C[C@H]1CC[C@H]2[C@@H]3CC[C@H]4N(C)C(=O)CC[C@]4(C)[C@H]3CC[C@]12C`, the IC50 in experiment [1] worked out at 66 nM; in experiment [2], 6.8 nM.

Regarding `CC(=O)[C@H]1[C@@H](C)C[C@H]2[C@@H]3CCC4N(C)C(=O)CC[C@]4(C)[C@H]3CC[C@@]21C` (stereo partly drawn), the IC50 in experiment [1] came out at 8600 nM; in experiment [2], 16 nM.

As to `CCCCCCCCN(CCCCCCCC)C(=O)[C@H]1CC[C@H]2[C@@H]3CCC4N(C)C(=O)CC[C@]4(C)[C@H]3CC[C@]12C` (stereo partly drawn), the concentration for half-maximal inhibition (IC50) in experiment [1] turned out to be 46000 nM; in experiment [2], 33 nM.

These data come from ChEMBL document CHEMBL1123274, “Azasteroids: structure-activity relationships for inhibition of 5 alpha-reductase and of androgen receptor binding” (J Med Chem, 1986).
